Reference: US8389739B1, “Modulators of retinoid-related orphan receptor gamma” (Orphagen Pharmaceuticals, priority 2006, dated 2013)

Columns and labels:
hPPARδ = biological target: T1, hPPARδ (Homo sapiens, UniProt Q03181); experiment: Crossreactive receptor transcriptional assay (Gal4 hybrid); type: cell-based
T1 construct: 138-441; expressed in transfected cells; host or cells: CHO cells, transient transfection
T1 sequence (Q03181 138-441): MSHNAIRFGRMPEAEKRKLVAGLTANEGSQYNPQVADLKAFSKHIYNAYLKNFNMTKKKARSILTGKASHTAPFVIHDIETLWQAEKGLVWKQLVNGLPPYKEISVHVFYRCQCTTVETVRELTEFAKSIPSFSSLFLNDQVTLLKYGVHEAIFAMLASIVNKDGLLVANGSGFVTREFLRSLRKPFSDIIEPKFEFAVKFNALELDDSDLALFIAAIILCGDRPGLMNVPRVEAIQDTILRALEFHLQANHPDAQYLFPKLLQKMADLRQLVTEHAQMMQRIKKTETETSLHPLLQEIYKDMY
Procedure: A firefly luciferase reporter gene for Gal4 DBD hybrid receptors, such as Gal4-RORγ, contains five copies of the Gal4 17-mer response element in its promoter and the coding sequence for firefly luciferase (pG5-luc, Promega). CHO (Chinese Hamster Ovary) cells were cultured in Ham's F12 medium supplemented with 10% fetal calf serum (Gemini Biologicals), 10 μg/ml penicillin and streptomycin, and were maintained in a humidified 37° C. incubator (Thermo Electron, Steri-Cycle) with 5% CO2. 24 hours before transfection, cells were plated in T175 flasks (5×10^6 cells/flask) or T75 flasks (1.7×10^6 cells/flask). Transient transfection of CHO cells was performed using TransIT-CHO reagents (Minis, Madison, Wis.) with a mixing ratio of 2:6:1 between plasmid DNA (in μg), TransIT-CHO (in μl) and CHO-mojo (in μl).
Plates are maintained at 37° C. in a humidified atmosphere with 7% CO2 overnight. Four (4) hours after cell seeding, compounds dissolved in DMSO at 10 mM were added to cells at final concentrations of 20 micromolar (μM) to 20 nanomolar (nM) in 0.2% DMSO in triplicate plates. Approximately 40 hours later, cytotoxicity in the assay well was characterized by addition of the dye resazurin (O'Brien, Wilson et al. 2000) to a final concentration of 3 μM. […] Percent viability was determined as 2 hour fluorescence, minus background at t=0 hours, normalized to DMSO controls. For detection of luciferase activity, media was removed from plates after the measurement of resazurin conversion, and SteadyLite luciferase reagent (Perkin-Elmer) was added (30 μl/well). Luminescence is detected with a Victor 2-V plate reader (Perkin-Elmer) and normalized to luciferase activity of DMSO control wells alone.

liver triglycerides = experiment: Liver triglycerides after oral dosing in C57BL/6 mice; type: in vivo; conditions: Dex 12.5 mg/kg once 2 days before necropsy
Procedure: […] A small piece of the liver (˜200 mg) was weighed and extracted to determine triglyceride content. Glycerol was liberated from liver triglycerides by hydrolysis in base. The liver fragment was incubated overnight at 55° C. in 0.35 mls of ethanolic KOH (2 parts EtOH: 1 part 30% KOH) in a closed tube. A solution of 50% ethanol in water was added to bring the volume of each tube to 1.0 ml. The solution was cleared of debris by centrifugation, and the resulting supernatant increased to 1.2 ml with further addition of 50% ethanol. Aqueous 1 M MgCl2 (215 μl) was added to 200 μl of the supernatant, and the mixture was cleared by centrifugation again after standing 10 min on ice. Glycerol levels were measured with the Sigma Free Glycerol Reagent (Sigma-Aldrich, St. Louis, Mo.) according to the manufacturer's instructions. The triglyceride concentration (in milligrams per gram of liver wet weight) was determined by assuming average molecular weight of 1000 daltons for each molecule of triglyceride.

thymocytes = experiment: Thymus weight and thymocyte subpopulations after oral dosing in C57BL/6 mice; type: in vivo
Procedure: In addition, the total number and the fraction of the major thymocyte subpopulations including CD4^+CD8^+ (DP), CD4^+CD8^- (SP4^+) and CD4^-CD8^+ (SP8^+) were measured by cell surface staining followed by FACS analysis. […] The volume of cells was adjusted to 8 mls. Debris from the thymus was allowed to settle, and a 200 μl aliquot of cells was incubated with fluorescent antibodies to CD4 and CD8 for 15 minutes at room temperature. […] Before analytical flow cytometry was carried out (FACS Calibur, Becton Dickinson), Caltag counting beads (from Invitrogen) were added to allow absolute quantitation of cell number. Thymus subpopulations were determined after gating for live cells. […] Dexamethasone reproducibly induces rapid apoptosis of DP thymocytes and reduction of thymic mass ([…], Drupt et al. 2000; Zubkova, Mostowski et al. 2005).

[1] = system: TH1 cell differentiation from naïve CD4+ T cells; experiment: Differentiation of naïve CD4+ T cells with IL-12 (Th-1 protocol), IFN-γ staining by FACS; type: cell-based, mouse; conditions: Table 8; 10 ng/ml; naïve CD4 cells, 5 days; mean ±SD; no cytokine 0.21
[2] = Dex 12.5 mg/kg once 2 days before necropsy

`CC(C)(Oc1ccc(CCNC(=O)c2ccc(Cl)cc2)cc1)C(=O)O` [Bezafibrate, bezafibrate, reference compound] showed an EC50 (hPPARδ) greater than 20 µM.

In the case of `C[C@@H]1C[C@H]2[C@@H]3CCC4=CC(=O)C=C[C@]4(C)[C@@]3(F)[C@@H](O)C[C@]2(C)[C@@]1(O)C(=O)CO` [Dexamethasone, dexamethasone], the “Liver triglycerides” value (liver triglycerides) is reported as 35.3 ± 8.2 mg/g, the “Frequency of DP (% of total cells)” value (thymocytes; [2]) is reported as 4.2 ± 2.9% and the “Thymus weight” value (thymocytes; [2]) is reported as 49.7 µg. For the same molecule, the “Total cells per thymus (×10^−6) DP” value (thymocytes; [2]) was 1.0 ×10^−6, the “Total cells per thymus (×10^−6) SP4” value (thymocytes; [2]) was 3.9 ×10^−6 and the “Total cells per thymus (×10^−6) SP8” value (thymocytes; [2]) was 1.2 ×10^−6. The “effect on DP thymocytes, in words” value (thymocytes; dexamethasone positive control, once two days before sacrifice) was “virtually total depletion of DP thymocytes”.

B1: IL-12: exogenous cytokine, stimulates TH1 differentiation (protein, UniProt P29459 23-219; P29460 23-328, looked up)
Interleukin-12 subunit alpha: RNLPVATPDPGMFPCLHHSQNLLRAVSNMLQKARQTLEFYPCTSEEIDHEDITKDKTSTVEACLPLELTKNESCLNSRETSFITNGSCLASRKTSFMMALCLSSIYEDLKMYQVEFKTMNAKLLMDPKRQIFLDQNMLAVIDELMQALNFNSETVPQKSSLEEPDFYKTKIKLCILLHAFRIRAVTIDRVMSYLNAS
Interleukin-12 subunit beta: IWELKKDVYVVELDWYPDAPGEMVVLTCDTPEEDGITWTLDQSSEVLGSGKTLTIQVKEFGDAGQYTCHKGGEVLSHSLLLLHKKEDGIWSTDILKDQKEPKNKTFLRCEAKNYSGRFTCWWLTTISTDLTFSVKSSRGSSDPQGVTCGAATLSAERVRGDNKEYEYSVECQEDSACPAAEESLPIEVMVDAVHKLKYENYTSSFFIRDIIKPDPPKNLQLKPLKNSRQVEVSWEYPDTWSTPHSYFSLTFCVQVQGKSKREKKDRVFTDKTSATVICRKNASISVRAQDRYYSSSWSEWASVPCS
In the case of B1, the “IL-17 (%)” value [1] is reported as 0.09 ± 0.01%.
